Patent publication US6774211B1, “Peptide antiangiogenic drugs” (Abbott Laboratories, priority 1998, dated 2004)
Where a SMILES comes first, the peptide text is derived from it. [ ]: non-standard residue; d: D form. Nva = CCC[C@H](N)C(=O)O; Sar = CNCC(=O)O

test system: Human Microvascular Endothelial Cells (HMVEC); assay: Human microvascular endothelial cell (HMVEC) migration assay, modified Boyden chamber; format: cell-based; conditions: 10 nM; migration stimulated with 15 ng/ml bFGF/VEGF; compared to positive control
Description: The human microvascular endothelial (HMVEC) migration assay was run according to the procedure of S. S. Tolsma, O. V. Volpert, D. J. Good, W. F. Frazier, P. J. Polverini and N. Bouck, J. Cell Biol. 122, 497-511 (1993).
The HMVEC migration assay was carried out using Human Microvascular Endothelial Cells-Dermal (single donor) and Human Microvascular Endothelial Cells, (neonatal). The BCE or HMVEC cells were starved overnight in DME containing 0.1% bovine serum albumin (BSA). Cells were then harvested with trypsin and resuspended in DME with 0.1% BSA at a concentration of 1.5×10^6 cells per ml. Cells were added to the bottom of a 48 well modified Boyden chamber (Nucleopore Corporation, Cabin John, Md.). The chamber was assembled and inverted, and cells were allowed to attach for 2 hours at 37° C. to polycarbonate chemotaxis membranes (5 μm pore size) that had been soaked in 0.1% gelatin overnight and dried. The chamber was then reinverted, and test substances (total volume of 50 μl), including activators, 15 ng/ml bFGF/VEGF, were added to the wells of the upper chamber. The apparatus was incubated for 4 hours at 37° C. Membranes were recovered, fixed and stained (Diff Quick, Fisher Scientific) and the number of cells that had migrated to the upper chamber per […] high power fields counted. Background migration to DME+0.1 BSA was subtracted and the data reported as the number of cells migrated per 10 high power fields (400×) or, when results from multiple experiments were combined, as the percent inhibition of migration compared to a positive control.

Compared with `CCC[C@H](NC(=O)[C@@H](NC(=O)[C@H](NC(=O)[C@@H](NC(=O)CNC(=O)CN(C)C(C)=O)C(C)C)[C@H](C)CC)[C@@H](C)O)C(=O)N[C@H](C(=O)N[C@@H](CCCNC(=N)N)C(=O)N1CCC[C@H]1C(=O)NCC)[C@@H](C)CC` [Example 1, N-Ac-Sar-Gly-Val-D-Ile-Thr-Nva-Ile-Arg-ProNHCH2CH3] (Ac-[Sar]GV[dI]T[Nva]IRP-NHEt), “N-Ac-Sar-Gly-Val-D-Cha-Thr-Nva-Ile-Arg-ProNHCH2CH3 [Example 28]” is lower in “% Inhib. @ 10 nM” value: 76.9% for the first, 47.0% for the second.

Compared with “N-(Tetrahydro-2-furoyl)-Sar-Gly-Val-D-Ile-Thr-Nva-Ile-Arg-ProNHCH2CH3 [Example 61]”, “N-Ac-Sar-Gly-Val-D-Val-Thr-Nva-Ile-Arg-ProNHCH2CH3 [Example 18]” is lower in “% Inhib. @ 10 nM” value: 83.7% for the first, 51.4% for the second.

Compared with “N-Ac-Sar-Gly-Val-D-Ile-Thr-Gln-Ile-Arg-ProNHCH2CH3 [Example 43]”, “N-Ac-Sar-Gly-Val-D-Ile-Thr-Nva-Ile-Arg-ProNHethyl-(1-pyrrolidine) [Example 5]” is lower in “% Inhib. @ 10 nM” value: 94.1% for the first, 87.2% for the second.

same assay, conditions: 20 nM; migration stimulated with 15 ng/ml bFGF/VEGF; compared to positive control

Compared with “N-Ac-Sar-Gly-Val-D-Ile-Thr-Nva-Ile-Arg-ProNHCH2CH2OCH3 [Example 11]”, `CCC[C@H](NC(=O)[C@@H](NC(=O)[C@H](NC(=O)[C@@H](NC(=O)CNC(=O)CN(C)C(C)=O)C(C)C)[C@H](C)CC)[C@@H](C)O)C(=O)N[C@H](C(=O)N[C@@H](CCCNC(=N)N)C(=O)N1CCC[C@H]1C(=O)NCC)[C@@H](C)CC` [Example 1, N-Ac-Sar-Gly-Val-D-Ile-Thr-Nva-Ile-Arg-ProNHCH2CH3] (Ac-[Sar]GV[dI]T[Nva]IRP-NHEt) is higher in “% Inhib. @ 20 nM” value: 70.4% for the first, 87.3% for the second.

Going from “N-(2-Furoyl)-Sar-Gly-Val-D-Ile-Thr-Nva-Ile-Arg-ProNHCH2CH3 [Example 59]” to “N-Ac-Sar-Gly-Val-D-Ile-Thr-Nva-Ile-Arg-ProNHCH(CH3)2 [Example 4]”, the “% Inhib. @ 20 nM” value falls from 82.3% to 71.3%.

Compared with “N-Propionyl-Sar-Gly-Val-D-Ile-Thr-Nva-Ile-Arg-ProNHCH2CH3 [Example 56]”, “H-Sar-Gly-Val-D-Ile-Thr-Nva-Ile-Arg-ProNHCH2CH3 [Example 66]” is higher in “% Inhib. @ 20 nM” value: 49.9% for the first, 76.1% for the second.

Compared with “N-Ac-Sar-Gly-Val-D-Ile-Thr-Allylgly-Ile-Arg-ProNHCH2CH3 [Example 49]”, “N-Ac-Sar-Gly-Val-D-Ile-Thr-DNva-Ile-Arg-ProNHCH2CH3 [Example 42]” is lower in “% Inhib. @ 20 nM” value: 83.4% for the first, 60.2% for the second.

Compared with “N-(2-Me-Nicotinyl)-Sar-Gly-Val-D-Ile-Thr-Nva-Ile-Arg-ProNHCH2CH3 [Example 53]”, “N-Shikimyl-Sar-Gly-Val-D-Ile-Thr-Nva-Ile-Arg-ProNHCH2CH3 [Example 58]” is lower in “% Inhib. @ 20 nM” value: 76.7% for the first, 68.8% for the second.

Compared with “N-Ac-Sar-Gly-Val-D-Ile-Thr-Val-Ile-Arg-ProNHCH2CH3 (Ac-[Sar]GV[dI]TVIRP-NHEt) [Example 47]”, “N-Nicotinyl-Sar-Gly-Val-D-Ile-Thr-Nva-Ile-Arg-ProNHCH2CH3 [Example 55]” is lower in “% Inhib. @ 20 nM” value: 69.7% for the first, 59.2% for the second.

Going from “N-Ac-Sar-Gly-Val-D-Ile-Thr-Met-Ile-Arg-ProNHCH2CH3 (Ac-[Sar]GV[dI]TMIRP-NHEt; SMILES CCNC(=O)[C@@H]1CCCN1C(=O)[C@H](CCCNC(=N)N)NC(=O)[C@@H](NC(=O)[C@H](CCSC)NC(=O)[C@@H](NC(=O)[C@H](NC(=O)[C@@H](NC(=O)CNC(=O)CN(C)C(C)=O)C(C)C)[C@H](C)CC)[C@@H](C)O)[C@@H](C)CC) [Example 51]” to “N-Butyryl-Sar-Gly-Val-D-Ile-Thr-Nva-Ile-Arg-ProNHCH2CH3 [Example 60]”, the “% Inhib. @ 20 nM” value rises from 67.0% to 75.3%.

First: N-Ac-Sar-Gly-Val-D-Ile-Thr-Ala-Ile-Arg-ProNHCH2CH3 [Example 46]
Second: N-Succinyl-Sar-Gly-Val-D-Ile-Thr-Nva-Ile-Arg-ProNHCH2CH3 [Example 54]
The “% Inhib. @ 20 nM” value of the first is lower: 77.5% for the first, 81.3% for the second.

In the case of “N-MeOacetyl-Sar-Gly-Val-D-Ile-Thr-Nva-Ile-Arg-ProNHCH2CH3 [Example 57]”, the “% Inhib. @ 20 nM” value is reported as 56.6%.
